In patent US10772855B2, “N-bromotaurine solutions and emulsions against abnormal cells” (NASCO AD BIOTECHNOLOGY LABORATORY, priority 2016, dated 2020):
“Also recorded” adds a separate entry of the source.

Legend:
purulent leg ulcers = details: cited from earlier work
[1] = test system: hyper-proliferating cell lines A549, PC3, HeLa, MDA-MB 231, HepG2; test: Proliferation assays, statements for all cancer cell lines together; type: cell-based; details: for enhancement of anti-proliferative effect against cancer cells as single parameter in NBrT solutions: surplus of taurine or later addition of NaOBr alone, NBrT 62.5-250 μM
Description: (§1) The same accounts by later addition of Taurine to a 200 mM concentration in a 40 mM NBrT solution to cause enhancement of anti-proliferative effect against cancer cells. The enhancement of anti-proliferative effect against cancer cells is achieved by the use of the surplus of taurine present in the solution that is thereafter reacting with a later addition of 40 μM NaOBr solution at 24, 48 and 72 hours of in vitro incubation of cancer cells. That is, with a 1% addition of 40 μM NaOBr solution in total volume of cell cultures at 24, 48 and 72 hours, i.e. 0.4 μM NaOBr, favorable circumstances for fresh NBrT synthesis are made in order to contribute to reaction against abnormally hyper-proliferative cells. […] Normally proliferating cell lines show an evident decrease in their proliferative ability when grown at concentrations of NBrT above 250 μM. It has to be noted that all cells tested are not affected in their proliferation rate when growing in the same medium containing 0.4-40 μM NaOBr. In general, in order to achieve acceleration of anti-proliferative effect on hyper-proliferating cells without causing damage on proliferation of normal cells the concentration of NBrT in solution is 1:5 the concentration of estimated Taurine and the addition of NaOBr solution at latter stages of treatment is 1:100 the concentration of NBrT and 1:500 the concentration of Taurine.
Following, a more detailed description of the enhancement of the anti-proliferative effect obtained with the methodology of this invention, having the aqueous solutions of NBrT/taurine, is given. Stock solution of 4 mM NBrT/20 mM taurine was diluted in final concentrations of 62.5, 125, 250 μM NBrT and 312.5, 625, 1250 μM taurine, respectively, in culture medium DMEM/10% FBS.
(§2) During cell cultivation NaOBr solutions of 62.5 mM, 125 mM and 250 mM were added in 1:100 dilution to the corresponded 62.5, 125, and 250 μM NBrT and 312.5, 625, 1250 μM taurine every 24/48/72 hours. The calculation of the increase of anti-proliferative activity in cancer cells with the methodology of this invention was made in comparison to the rate of anti-proliferative effect that solutions of NBrT exert in final concentrations of 62.5, 125 and 250 μM in the same cultivation medium. The effect of NBrT/taurine solutions with latter addition of NaOBr, namely the solutions of this present invention were compared with effect obtained by NBrT solutions without a surplus of Taurine and without latter addition of NaOBr using the same cell lines in the same experiment. […] The anti-proliferative effect on all cell cultures was measured as a means of cellular viability by Optical Density at 595 nm using a Tecan reader using a crystal violet reagent. All experiments were performed in triplicate and mean values were used.

all cells tested = test: Proliferation rate of cells in medium containing NaOBr alone; type: cell-based
Description: as §1, with “Taurine. […]” for “Taurine.”

[2] = test system: Prostaglandin E2 production; details: via Heme Oxygenase; cited from earlier work
[3] = test system: skin of patients with acne vulgaris; details: NBrT up to 5 mM applied onto the skin of patients; cited from earlier work
[4] = test system: fibroblast-like synoviocytes; details: fibroblast-like synoviocytes that participate in rheumatoid arthritis; cited from earlier work
[5] = test system: HLF-1 (Normal fibroblast - control); test: Proliferation assay (cellular viability, crystal violet, OD 595 nm), normal fibroblast control; type: cell-based; details: NBrT concentration range of 12.5-40 μM; surplus of taurine, later addition of NaOBr at 24, 48 and 72 hours
From the text: (§3) Following, a more detailed description of the enhancement of the anti-proliferative effect obtained with the methodology of this invention, having the aqueous solutions of NBrT/taurine, is given. […]
as §2, with “The” for “During cell cultivation NaOBr solutions of 62.5 mM, 125 mM and 250 mM were added in 1:100 dilution to the corresponded 62.5, 125, and 250 μM NBrT and 312.5, 625, 1250 μM taurine every 24/48/72 hours. The”, “of anti-proliferative effect that solutions of NBrT exert in final concentrations of 62.5, 125 and 250 μM in the same cultivation medium.” left out

[6] = test system: (Normal fibroblast - control); test: as above; type: cell-based; details: human
From the text: as §3
as §2, with “The” for “During cell cultivation NaOBr solutions of 62.5 mM, 125 mM and 250 mM were added in 1:100 dilution to the corresponded 62.5, 125, and 250 μM NBrT and 312.5, 625, 1250 μM taurine every 24/48/72 hours. The”, “of anti-proliferative effect that solutions of NBrT exert in final concentrations of 62.5, 125 and 250 μM in the same cultivation medium.” left out

[7] = test system: cancer cell lines A549, PC3, MDA-MB 231, HeLa, HepG2; test: Anti-proliferative effect of stored versus fresh NBrT aqueous solutions; type: cell-based; details: aqueous solution in double distilled water or PBS left for 15, 30 or 45 days at room temperature or 4° C.; all cancer cell lines tested
Description: During studies on NBrT anti-proliferative effect against cancer cells, aqueous solutions of NBrT in double distilled water or phosphate buffered saline where left for 15, 30 and 45 days in room temperature or at 4° C. The anti-proliferative effect of NBrT solutions was decreased by 30-40% each time a respective solution was tested that was left for 15, 30 or 45 days since time of production in comparison with the results of the anti-proliferative effect obtained from the same but fresh solution of NBrT, tested at the same day of production. The same results were noticed in all cancer cell lines tested (A549, PC3, MDA-MB 231, HeLa, and HepG2). The loss of anti-proliferative effect of the aqueous solutions of NBrT (15, 30, 45 days) was tightly connected with the loss of corresponding absorbance at 286 nm having as a reference that a solution of 10 mM NBrT has a peak at 430M^−1 cm^−1 at day of production.

Structure (SMILES): O=S(=O)(O)CCNCl [NCT, N-Chlorotaurine]
- tolerability and toxicity (purulent leg ulcers; applied locally onto patient's wounds): increased tolerability, low toxicity
- efficacy against purulent leg ulcers (purulent leg ulcers; phase II clinical study): significant results against purulent leg ulcers

Structure (SMILES): [Na+].[O-]Br [NaOBr]
- enhancement of anti-proliferative effect against cancer cells as single parameter in NBrT solutions [1]: do not exert any enhancement; also recorded: do not confer enhancement
- proliferation rate of all cells tested (all cells tested; medium containing 0.4-4 μM NaOBr): not affected
- proliferation rate of all cells tested (all cells tested; medium containing 0.4-40 μM NaOBr): not affected

Structure (SMILES): O=S(=O)(O)CCNBr [NBrT, N-bromotaurine]
- Prostaglandin E2 production (eicosanoid PGE2) [2]: inhibition of Prostaglandin E2 production
- anti-proliferative effect on all hyper-proliferating cell lines tested ([1]; surplus of taurine and later addition of NaOBr at 24, 48 and 72 hours): accelerating anti-proliferative effect
- side effects on skin [3]: literally no side effect
- IL6 and inflammatory mediators (PEG2) [4]: inhibit
- effect on normally proliferating fibroblast cell line HFL-1 [5]: literally no effect
- NBrT concentration at which normally proliferating cell lines show an evident decrease in their proliferative ability [6]: above 250 μM
- decrease of anti-proliferative effect in comparison with the same but fresh solution [7]: 30-40%

Structure (SMILES): NCCS(=O)(=O)O [Taurine]
- enhancement of anti-proliferative effect against cancer cells as single parameter in NBrT solutions [1]: do not exert any enhancement
- enhancement of anti-proliferative effect against cancer cells as single parameter in NBrT solutions ([1]; listed as taurine): do not confer enhancement
